Values joined by “and” are separate entries in the source; they are usually repeats but may differ in a detail not shown here. Equal values may be shown once.
Experiment: molar heat capacity at constant pressure; xn = mol fraction of the nth substance listed
Settings: 100 kPa

[Si] [silicon] + [Li]
Settings | molar heat capacity at constant pressure
213.05 K, Crystal of intercomponent compound 2, relaxation calorimeter, x2 = 0.804 | 19.41 J/K/mol
217.1 K, Crystal of intercomponent compound 2, relaxation calorimeter, x2 = 0.804 | 19.42 J/K/mol
217.11 K, Crystal of intercomponent compound 1, relaxation calorimetry, x2 = 0.81 | 19.04 J/K/mol
217.12 K, Crystal of intercomponent compound 2, relaxation calorimeter, x2 = 0.804 | 19.59 J/K/mol
220 K, Crystal of intercomponent compound 1, relaxation calorimetry + DSC, x2 = 0.81 | 19.27 J/K/mol
220 K, Crystal of intercomponent compound 2, relaxation calorimetry + DSC, x2 = 0.804 | 19.69 J/K/mol
221.11 K, Crystal of intercomponent compound 2, relaxation calorimeter, x2 = 0.804 | 19.62 J/K/mol
221.12 K, Crystal of intercomponent compound 1, relaxation calorimetry, x2 = 0.81 | 19.24 J/K/mol
221.13 K, Crystal of intercomponent compound 2, relaxation calorimeter, x2 = 0.804 | 19.84 J/K/mol
225.23 K, Crystal of intercomponent compound 2, relaxation calorimeter, x2 = 0.804 | 19.86 J/K/mol
225.24 K, Crystal of intercomponent compound 1, relaxation calorimetry, x2 = 0.81 | 19.46 J/K/mol
225.25 K, Crystal of intercomponent compound 2, relaxation calorimeter, x2 = 0.804 | 20.03 J/K/mol
229.28 K, Crystal of intercomponent compound 2, relaxation calorimeter, x2 = 0.804 | 20.05 J/K/mol
229.3 K, Crystal of intercomponent compound 1, relaxation calorimetry, x2 = 0.81 | 19.66 J/K/mol
229.31 K, Crystal of intercomponent compound 2, relaxation calorimeter, x2 = 0.804 | 20.22 J/K/mol
230 K, Crystal of intercomponent compound 1, relaxation calorimetry + DSC, x2 = 0.81 | 19.74 J/K/mol
230 K, Crystal of intercomponent compound 2, relaxation calorimetry + DSC, x2 = 0.804 | 20.16 J/K/mol
233.29 K, Crystal of intercomponent compound 2, relaxation calorimeter, x2 = 0.804 | 20.23 J/K/mol
233.3 K, Crystal of intercomponent compound 1, relaxation calorimetry, x2 = 0.81 | 19.83 J/K/mol
233.31 K, Crystal of intercomponent compound 2, relaxation calorimeter, x2 = 0.804 | 20.38 J/K/mol
237.4 K, Crystal of intercomponent compound 2, relaxation calorimeter, x2 = 0.804 | 20.4 J/K/mol
237.41 K, Crystal of intercomponent compound 1, relaxation calorimetry, x2 = 0.81 | 20 J/K/mol
237.43 K, Crystal of intercomponent compound 2, relaxation calorimeter, x2 = 0.804 | 20.54 J/K/mol
240 K, Crystal of intercomponent compound 1, relaxation calorimetry + DSC, x2 = 0.81 | 20.18 J/K/mol
240 K, Crystal of intercomponent compound 2, relaxation calorimetry + DSC, x2 = 0.804 | 20.58 J/K/mol
241.46 K, Crystal of intercomponent compound 2, relaxation calorimeter, x2 = 0.804 | 20.62 J/K/mol
241.48 K, Crystal of intercomponent compound 1, relaxation calorimetry, x2 = 0.81 | 20.17 J/K/mol
241.49 K, Crystal of intercomponent compound 2, relaxation calorimeter, x2 = 0.804 | 20.73 J/K/mol
245.47 K, Crystal of intercomponent compound 2, relaxation calorimeter, x2 = 0.804 | 20.87 J/K/mol
245.48 K, Crystal of intercomponent compound 1, relaxation calorimetry, x2 = 0.81 | 20.3 J/K/mol
245.5 K, Crystal of intercomponent compound 2, relaxation calorimeter, x2 = 0.804 | 20.93 J/K/mol
249.59 K, Crystal of intercomponent compound 2, relaxation calorimeter, x2 = 0.804 | 21 J/K/mol
249.6 K, Crystal of intercomponent compound 1, relaxation calorimetry, x2 = 0.81 | 20.44 J/K/mol
249.62 K, Crystal of intercomponent compound 2, relaxation calorimeter, x2 = 0.804 | 21.13 J/K/mol
250 K, Crystal of intercomponent compound 1, relaxation calorimetry + DSC, x2 = 0.81 | 20.59 J/K/mol
250 K, Crystal of intercomponent compound 2, relaxation calorimetry + DSC, x2 = 0.804 | 20.99 J/K/mol
253.66 K, Crystal of intercomponent compound 2, relaxation calorimeter, x2 = 0.804 | 21.14 J/K/mol
253.67 K, Crystal of intercomponent compound 1, relaxation calorimetry, x2 = 0.81 | 20.58 J/K/mol
253.68 K, Crystal of intercomponent compound 2, relaxation calorimeter, x2 = 0.804 | 21.27 J/K/mol
257.65 K, Crystal of intercomponent compound 2, relaxation calorimeter, x2 = 0.804 | 21.3 J/K/mol
257.66 K, Crystal of intercomponent compound 1, relaxation calorimetry, x2 = 0.81 | 20.7 J/K/mol
257.68 K, Crystal of intercomponent compound 2, relaxation calorimeter, x2 = 0.804 | 21.42 J/K/mol
260 K, Crystal of intercomponent compound 1, relaxation calorimetry + DSC, x2 = 0.81 | 20.98 J/K/mol
260 K, Crystal of intercomponent compound 2, relaxation calorimetry + DSC, x2 = 0.804 | 21.37 J/K/mol
261.78 K, Crystal of intercomponent compound 1, relaxation calorimetry, x2 = 0.81 | 20.8 J/K/mol
261.78 K, Crystal of intercomponent compound 2, relaxation calorimeter, x2 = 0.804 | 21.42 J/K/mol
261.79 K, Crystal of intercomponent compound 2, relaxation calorimeter, x2 = 0.804 | 21.54 J/K/mol
265.83 K, Crystal of intercomponent compound 2, relaxation calorimeter, x2 = 0.804 | 21.55 J/K/mol
265.84 K, Crystal of intercomponent compound 1, relaxation calorimetry, x2 = 0.81 | 20.92 J/K/mol
265.86 K, Crystal of intercomponent compound 2, relaxation calorimeter, x2 = 0.804 | 21.64 J/K/mol
269.82 K, Crystal of intercomponent compound 2, relaxation calorimeter, x2 = 0.804 | 21.67 J/K/mol
269.85 K, Crystal of intercomponent compound 1, relaxation calorimetry, x2 = 0.81 | 21.06 J/K/mol
269.85 K, Crystal of intercomponent compound 2, relaxation calorimeter, x2 = 0.804 | 21.75 J/K/mol
270 K, Crystal of intercomponent compound 1, relaxation calorimetry + DSC, x2 = 0.81 | 21.36 J/K/mol
270 K, Crystal of intercomponent compound 2, relaxation calorimetry + DSC, x2 = 0.804 | 21.73 J/K/mol
273.88 K, Crystal of intercomponent compound 2, relaxation calorimeter, x2 = 0.804 | 21.84 J/K/mol
273.9 K, Crystal of intercomponent compound 1, relaxation calorimetry, x2 = 0.81 | 21.15 J/K/mol
273.91 K, Crystal of intercomponent compound 2, relaxation calorimeter, x2 = 0.804 | 21.9 J/K/mol
278.02 K, Crystal of intercomponent compound 1, relaxation calorimetry, x2 = 0.81 | 21.25 J/K/mol
278.02 K, Crystal of intercomponent compound 2, relaxation calorimeter, x2 = 0.804 | 21.93 J/K/mol
278.04 K, Crystal of intercomponent compound 2, relaxation calorimeter, x2 = 0.804 | 22 J/K/mol
280 K, Crystal of intercomponent compound 1, relaxation calorimetry + DSC, x2 = 0.81 | 21.72 J/K/mol
280 K, Crystal of intercomponent compound 2, relaxation calorimetry + DSC, x2 = 0.804 | 22.09 J/K/mol
282.07 K, Crystal of intercomponent compound 2, relaxation calorimeter, x2 = 0.804 | 22.06 J/K/mol
282.08 K, Crystal of intercomponent compound 1, relaxation calorimetry, x2 = 0.81 | 21.37 J/K/mol
282.09 K, Crystal of intercomponent compound 2, relaxation calorimeter, x2 = 0.804 | 22.11 J/K/mol
284.87 K, Crystal of intercomponent compound 1, Small sample (50 mg) DSC, x2 = 0.81 | 22.13 J/K/mol and 22.16 J/K/mol
284.87 K, Crystal of intercomponent compound 2, Small sample (50 mg) DSC, x2 = 0.804 | 22.41 J/K/mol
286.06 K, Crystal of intercomponent compound 2, relaxation calorimeter, x2 = 0.804 | 22.16 J/K/mol
286.08 K, Crystal of intercomponent compound 1, relaxation calorimetry, x2 = 0.81 | 21.42 J/K/mol
286.08 K, Crystal of intercomponent compound 2, relaxation calorimeter, x2 = 0.804 | 22.26 J/K/mol
290 K, Crystal of intercomponent compound 1, relaxation calorimetry + DSC, x2 = 0.81 | 22.08 J/K/mol
290 K, Crystal of intercomponent compound 2, relaxation calorimetry + DSC, x2 = 0.804 | 22.45 J/K/mol
290.12 K, Crystal of intercomponent compound 1, relaxation calorimetry, x2 = 0.81 | 21.52 J/K/mol
290.13 K, Crystal of intercomponent compound 2, relaxation calorimeter, x2 = 0.804 | 22.36 J/K/mol
294.26 K, Crystal of intercomponent compound 1, relaxation calorimetry, x2 = 0.81 | 21.6 J/K/mol
294.27 K, Crystal of intercomponent compound 2, relaxation calorimeter, x2 = 0.804 | 22.5 J/K/mol
294.79 K, Crystal of intercomponent compound 2, Small sample (50 mg) DSC, x2 = 0.804 | 22.86 J/K/mol
294.8 K, Crystal of intercomponent compound 1, Small sample (50 mg) DSC, x2 = 0.81 | 22.38 J/K/mol and 22.54 J/K/mol
298.15 K, Crystal of intercomponent compound 1, relaxation calorimetry + DSC, x2 = 0.81 | 22.38 J/K/mol
